Test results as given in ChEMBL document CHEMBL4177537, “Identification of a new class of potent Cdc7 inhibitors designed by putative pharmacophore model: Synthesis and biological evaluation of 2,3-dihydrothieno[3,2-d]pyrimidin-4(1H)-ones” (Bioorg Med Chem, 2017).

What was measured:
[1] = target: Rho-associated protein kinase 1 (Homo sapiens, UniProt Q13464); test: Inhibition of recombinant human N-terminal GST-tagged ROCK1 (1 to 477 residues) expressed in baculovirus expression system using biotin-STK substrate-2 as substrate preincubated for 5 mins followed by ATP addition after 2 hrs by TR-FRET assay
[2] = target: CDC7/DBF4 (Cell division cycle 7-related protein kinase/Activator of S phase kinase) (Homo sapiens, UniProt O00311); test: Inhibition of recombinant human Cdc7 (1 to 574 residues)/human N-terminal GST-tagged DBF4 (1 to 674 residues) expressed in baculovirus expression system using His-tagged MCM2 as substrate preincubated for 10 mins followed by ATP addition by HTRF assay
[3] = target: Cyclin-dependent kinase 2/cyclin E1 (Homo sapiens, UniProt P24941); test: Inhibition of recombinant human Cdk2 (1 to 298 residues)/human N-terminal GST-tagged cyclinE (1 to 410 residues) expressed in baculovirus expression system using histone H1 as substrate after 90 mins in presence of ATP by kinase-glo assay
COLO 205 = test: Cytotoxicity against human COLO205 cells after 3 days by CellTiter-Glo luminescent cell viability assay; assay type: functional, cell-based; settings: COLO 205, 72 h
[4] = target: Cell division cycle 7-related protein kinase (Homo sapiens, UniProt O00311); test: Inhibition of Cdc7 in human HeLa cells assessed as reduction in MCM2 phosphorylation at ser40 residues after 7 hrs by Western blot analysis; assay type: cell-based
[5] = Solubility of the compound; assay type: physicochemical

Row | Compound | IC50 [1] [nM] | IC50 [2] [nM] | IC50 [3] [nM] | EC50 (COLO 205) [nM] | IC50 [4] [nM] | solubility [5]
1 | CCCC1(C)NC(=O)c2sc(-c3ccncc3)cc2N1 (stereo not given) | 33 | 6.3 | 2000 | – | – | –
2 | O=c1[nH]c(=O)c2sc(-c3ccncc3)cc2[nH]1 | – | 690 | – | – | – | –
3 | Cc1n[nH]c(C)c1-c1cc2c(s1)C(=O)NC(C)(C)N2C | 2100 | 290 | 1100 | – | – | –
4 | CC(C)C1(C)NC(=O)c2sc(-c3ccncc3)cc2N1 (stereo not given) | 35 | 8.2 | 1400 | – | – | –
5 | O=C1NC2(CCCC2)Nc2cc(-c3ccncc3)sc21 | 100 | 8.2 | 4900 | – | – | –
6 | O=C1NC2(CCCCC2)Nc2cc(-c3ccncc3)sc21 | 53 | 3 | 2000 | – | – | –
7 | CN1c2c(sc(-c3cn[nH]c3)c2Br)C(=O)NC1(C)C | 22 | 9.5 | 26 | – | – | –
8 | CC1(CC(F)(F)F)NC(=O)c2sc(-c3ccncc3)cc2N1 (stereo not given) | 31 | 2.7 | 1200 | – | – | –
9 | CCC1(C)NC(=O)c2sc(-c3ccncc3)cc2N1 (stereo not given) | 36 | 7.5 | 2000 | – | – | –
10 | Cc1n[nH]cc1-c1cc2c(s1)C(=O)NC(C)(C)N2C | 54 | 2.9 | 260 | – | – | –
11 | Cc1n[nH]cc1-c1cc2c(s1)C(=O)N[C@]1(CC[C@@](O)(c3ccc(F)cc3)CC1)N2 | 130 | 170 | > 10000 | – | – | –
12 | Cc1n[nH]cc1-c1cc2c(s1)C(=O)N[C@]1(CC[C@@](O)(C3CCCCC3)CC1)N2 | 350 | 380 | > 10000 | – | – | –
13 | CC1(C)NC(=O)c2sc(-c3ccncc3)cc2N1 | 90 | 26 | 3200 | – | – | –
14 | CN1c2cc(-c3cn[nH]c3)sc2C(=O)NC1(C)C | 130 | 8.4 | 160 | – | – | –
15 | NC(=O)c1sc(-c2ccncc2)cc1N | – | 1200 | – | – | – | –
16 | CN1c2cc(-c3ccncc3)sc2C(=O)NC1(C)C | 140 | 9.9 | 2100 | – | – | –
17 | Cc1n[nH]cc1-c1cc2c(s1)C(=O)N[C@]1(CC[C@](O)(C3CCCCC3)CC1)N2 | 2900 | 2 | 2200 | 6200 | > 1000 | Soluble
18 | CC1(C)NC(=O)c2cc(-c3ccncc3)sc2N1 | 100 | 140 | – | – | – | –
19 | Cc1n[nH]cc1-c1cc2c(s1)C(=O)NC1(CCCCC1)N2 | 48 | 1.5 | 1300 | 470 | 290 | Soluble
20 | Cc1n[nH]cc1-c1cc2c(s1)C(=O)N[C@]1(CC[C@](O)(c3ccc(F)cc3)CC1)N2 | 820 | 1.2 | 960 | 4500 | > 1000 | Soluble
21 | CN1C(=O)c2sc(-c3ccncc3)cc2NC1(C)C | 240 | 450 | > 10000 | – | – | –
22 | CCc1n[nH]cc1-c1cc2c(s1)C(=O)NC(C)(C)N2C | 350 | 13 | 360 | – | – | –
23 | Cc1c(-c2cn[nH]c2)sc2c1N(C)C(C)(C)NC2=O | 44 | 14 | 26 | – | – | –
24 | O=C1NC2(CCCCCC2)Nc2cc(-c3ccncc3)sc21 | 37 | 3.6 | 2300 | – | – | –
25 | Cc1n[nH]cc1-c1cc2c(s1)C(=O)NC(C)(CC(F)(F)F)N2C (stereo not given) | 22 | 1 | 420 | 330 | 210 | Soluble
26 | CC1(C)Nc2cc(-c3ccncc3)sc2C(=O)N1Cc1ccccc1 | 1.5 | > 10000 | 650 | – | – | –
